The values that follow come from ChEMBL document CHEMBL1157539, “Thousands of chemical starting points for antimalarial lead identification” (Nature, 2010).

The subject of the assay is Plasmodium falciparum. Kind of assay: GSK_TCMDC: Inhibition of Plasmodium falciparum 3D7 in whole erythrocytes, using parasite LDH activity as an index of growth. Type of assay: functional, organism-based. To be noted: Plasmodium falciparum, 3D7.
`COc1ccc2nccc(N/N=C/c3cccc([N+](=O)[O-])c3)c2c1` came in with an XC50 of 398 nM. In the case of `CNc1nc(N/N=C/c2cc3c(cc2[N+](=O)[O-])OCO3)nc(Nc2cccc(C(F)(F)F)c2)n1` it was 771 nM; in that of `Nc1c2ccccc2nc2cc(Cl)ccc12`, 715 nM. `CCc1cc2c3c(N)nc(N)nc3ccc2n1C(C)CC` (stereo unspecified) gave an XC50 of 3.2 nM. On to `CN1CC=C(c2c[nH]c3ccc(OCc4ccccc4)cc23)CC1`, for which the XC50 worked out at 718 nM. As for `CCn1ncc2c(NC3CCOCC3)c(CNC(=O)c3ccnn3C)c(C)nc21`, the XC50 is 533 nM. Next, `COc1ccc(Oc2ccc(Nc3ccnc4ccc(C(F)(F)F)cc34)cc2)cc1OC`: 1060 nM; `COc1ccc2c(c1)CC1CN(CCCCNC(=O)c3ccc(NC(=O)c4cc(Cl)cc(Cl)c4)cc3)CCN1C2` (stereo unspecified): 767 nM. In the case of `COc1ccc2nccc([C@@H](O)CN3CCC(NC(=O)Cc4cccc5c(Br)cccc45)CC3)c2c1` it was 796 nM; in that of `O[C@H]1[C@H](OCc2ccc(-c3ccccc3)cc2)CC[C@@H]1N1CCCCC1`, 1060 nM.

In turn, `CCOc1ccc2c(=NN=Cc3ccccc3OC)cc(C)[nH]c2c1` returned an XC50 of 496 nM. Next, `O=C(/C=C/c1ccc(Cl)c(Cl)c1)NCCCCCN1CCC(NC(=O)Nc2ccc3c(c2)OCO3)CC1`: 713 nM; `CCn1cc(CN2C(=O)C(c3ccccc3)(c3ccccc3)N=C2N)cn1`: 820 nM. The compound `Cc1noc(C)c1-c1cccc(CNCc2ccc(-c3ccc(-c4nc5cccc(C)c5[nH]4)cc3)cc2)c1` gave an XC50 of 239 nM. In the case of `COc1ccc2[nH]c(C)cc(=NN=Cc3cc(C)ccc3O)c2c1` it was 143 nM; in that of `Cc1cccc(OC(C)C(=O)Nc2cc(C(F)(F)F)ccc2N2CCOCC2)c1` (stereo unspecified), 237 nM. Next, `CCN(CC)CCCC(C)Nc1c(-c2ccc(OC)cc2)cnc2ccccc12` (stereo unspecified): 894 nM. Next, `COc1ccc(CNCc2cccc(-c3cccc(-c4nc5ccccc5[nH]4)c3)c2)cc1`: 368 nM; `Cc1nn(-c2ccnc3cc(Cl)ccc23)c(C)c1C(=O)NCc1cc(Cl)cc(Cl)c1`: 869 nM. `Cc1cccc(NC(=O)c2ccc(C(=O)NC3CCN(CC4CCCCC4)CC3)cc2)c1` gave an XC50 of 805 nM.

As for `CCOc1ccc(NC(=O)c2cccc(CN3CCCN(Cc4cccc(O)c4)CC3)c2)cc1`, the XC50 is 1080 nM.

The compound `COc1ccc(NC(C)C(=O)Nc2ccc(Br)cc2)cc1S(=O)(=O)N1CCCCC1` (stereo unspecified) registered an XC50 of 221 nM. Next, `CS(=O)(=O)c1ccc(CNCc2ccc(-c3ccc(-c4nc5cc(F)ccc5[nH]4)s3)cc2)cc1`: 268 nM; `O=C(Nc1ccc(OCc2ccccc2)cc1)c1nc2ccccc2nc1Cl`: 254 nM. Next, `c1ccc(C2=NN=C(c3ccccn3)C3C4CC(C23)C2C3CC(c5ccccc53)C42)nc1` (stereo unspecified): 853 nM; `Fc1ccc2[nH]c(-c3ccc(-c4cccc(CN5CCCCC5)c4)cc3)nc2c1`: 267 nM. Consider `O=C(Cc1cccc(OCCCN(Cc2cccc(C(F)(F)F)c2Cl)CC(c2ccccc2)c2ccccc2)c1)NCc1ccco1`, for which the XC50 is 937 nM. Next, `COc1cc(NC(=O)N2CCOC(CCN3CCC4(CCc5ccccc54)CC3)(c3ccc(Cl)c(Cl)c3)C2)cc(OC)c1OC` (stereo unspecified): 156 nM; `CC(C)(C(=O)NCCC1CCN(CCCCCNC(=O)/C=C/c2ccc(Cl)c(Cl)c2)CC1)c1ccc(Cl)cc1`: 1280 nM; `CN(C)c1ccc(-c2csc(C(=O)NC3CCCCN(CCC(C)(C)C)C3)c2)cc1` (stereo unspecified): 1050 nM. In the case of `O=C(Nc1ccc(NC2=NCCN2)cc1)Nc1ccc(NC2=NCCN2)cc1` it was 845 nM. Next, `CCc1ccc(-c2nc3cc(NC(=O)c4ccc([N+](=O)[O-])o4)ccc3o2)cc1`: 250 nM; `CCNc1cc(C(=O)N[C@@H](Cc2ccccc2)[C@H](O)CNC(C)C)cc(N2CC(c3ccccc3)CCS2(=O)=O)c1` (stereo partly specified): 412 nM; `Cc1ccc(Nc2nnc(SCC(=O)Nc3ccc(CN4CCCC4)cc3)s2)cc1`: 1210 nM. With `N[C@@H](Cc1cc(I)c(Oc2ccc(O)c(C(=O)O)c2)c(I)c1)C(=O)O`, the XC50 worked out at 991 nM. Next, `CN(C)Cc1cccc(-c2ccc(NC(=O)c3ccc4c(=O)n(CCN5CCCCC5)cnc4c3)cc2)c1`: 650 nM; `O=C(NCCc1cccc(F)c1)c1cc(Br)cc(N2CCN(c3ccncc3)CC2)c1`: 764 nM; `O=C(CCn1c2ccccc2c2ccccc21)NN=Cc1ccco1`: 588 nM.

`Ic1cc(CNC2CCCCC2)ccc1OCc1cccc(COc2ccc(CNC3CCCCC3)cc2I)c1`: the XC50 is 829 nM. In the case of `CC(Cc1ccc(NC(=O)c2ccc(CC(C)NCc3ccc(Cl)c(Cl)c3)cc2)cc1)NCCc1cccc(Cl)c1` (stereo unspecified) it was 1000 nM; in that of `CC(=O)N1CCC(C(=O)Nc2ccc(-c3cccc(-c4nc5cc(C(F)(F)F)ccc5[nH]4)c3)cc2)CC1`, 239 nM; in that of `CN(c1ncc(-c2cccc(CNCc3ccccc3O)c2)cn1)C1CCCCC1`, 822 nM. Next, `CNCc1cccc2nc(-c3ccc(Cc4cc(Cl)ccc4OCC(C)C)o3)[nH]c12`: 895 nM. Next, `Cc1cc(NCc2ccccc2)nc(NCc2ccccc2)n1`: 974 nM; `COc1ccc(-c2ccc(CNCc3ccccc3)cc2)cc1S(=O)(=O)NCCN1CCCC1`: 726 nM.

For `CC(C)(C)OC(=O)NCc1ccc(Nc2nnc(-c3cccc(OCC(=O)NCc4cc(C(F)(F)F)cc(C(F)(F)F)c4)c3)o2)cc1`, the XC50 stood at 832 nM. In the case of `CC(C)Oc1cc2c(cc1NS(=O)(=O)c1ccc(-c3ccc(Cl)s3)cc1F)CCN(C)CC2`, the XC50 is 712 nM. As to `O=C(/C=C/c1ccc(Cl)c(Cl)c1)NCCCCCN1CCC(NC(=O)c2ccc([N+](=O)[O-])cc2)CC1`, the XC50 was 672 nM. Next, `CCOC(=O)c1c(C)n(-c2ccccc2)c2ccc(O)cc12`: 475 nM; `Nc1nc(N)c(-c2ccccc2)c(=O)[nH]1`: 1000 nM; `CNc1ccc(CNCc2cccc(-c3ccc(-c4nc5ccccc5[nH]4)s3)c2)cc1`: 734 nM. In the case of `O=C(/C=C/c1ccc(Cl)c(Cl)c1)NCCCCCCN1CCN(C(=O)Nc2ccc(F)c(Cl)c2)CC1` it was 938 nM. Next, `Cc1cccc2nc(-c3ccc(-c4ccc(CN5CC(C)OC(C)C5)cc4)cc3)[nH]c12` (stereo unspecified): 523 nM; `O=C(NC1CCN(Cc2ccc(Cl)cc2)CC1)c1cn(-c2ccccc2)nc1-c1cccnc1`: 972 nM; `N=C(N)c1ccc(OCc2cccc(COc3ccc(C(=N)N)cc3I)c2)c(I)c1`: 337 nM. As for `COc1ccc2nccc([C@@H](O)CN3CCC(NCCNc4ccccn4)CC3)c2c1`, the XC50 is 741 nM. Next, `COc1cc2nc(N3CCC(CNC(=O)c4ccc(-c5ccc(C#N)cc5)cc4)CC3)nc(N)c2cc1OC`: 796 nM; `CN(C)CCNC(=O)NC1CN(c2ncnc3cc(-c4ccccc4)sc23)C1`: 585 nM. Next, `O=C(NCCCCN1CCN(CC=Cc2ccccc2)CC1)c1ccc(NC(=O)c2cc(Cl)cc(Cl)c2)cc1`: 208 nM; `COc1cc(Cc2cnc(N)nc2N)cc(OCCCCC2SC(=O)NC2=O)c1OC` (stereo unspecified): 30.7 nM.

`CC(=O)N(C)c1ccc(C(=O)Nc2cccc(-c3cccc(-c4nc5cccc(C)c5[nH]4)c3)c2)cc1` registered an XC50 of 620 nM.

Consider `Cc1[nH]c2ccccc2c1C1=CCN(CCCCC2(C)C(=O)Nc3ccccc32)CC1` (stereo unspecified), for which the XC50 came out at 232 nM. In the case of `COCCn1c(-c2cccc(Cl)c2)nn(-c2ccc([N+](=O)[O-])cc2Cl)c1=S` it was 737 nM; in that of `COC(=O)c1cccc(CNCc2cccc(-c3ccc(-c4nc5cc(C(F)(F)F)ccc5[nH]4)cc3)c2)c1`, 257 nM. Next, `Cc1ccc([S+]([O-])Cc2ccc(Cl)cc2)cc1` (stereo unspecified): 196 nM; `NCCNc1ccc([N+](=O)[O-])cc1C(=O)Nc1cccc(C(F)(F)F)c1`: 905 nM; `CC(=O)N(Cc1cccc(-c2cccc(CNCc3ccc4c(c3)OCO4)c2)c1)C1CCN(Cc2ccccc2)CC1`: 839 nM. `COc1ccc(NS(=O)(=O)c2cccc(C(=O)Nc3ccc(C(F)(F)F)cc3)c2)cc1N1CCN(CC(C)C)CC1` registered an XC50 of 838 nM. With `CC(CNC(=O)c1cc2c(Cl)cc(Cl)cc2[nH]1)CNc1cc(=O)c2ccccc2[nH]1` (stereo unspecified), the XC50 was 715 nM.

As for `OC(COCc1ccc(-c2ccccc2)cc1)CN1CCCCC1` (stereo unspecified), the XC50 worked out at 269 nM. In the case of `CCNc1cc(C(=O)N[C@@H](Cc2cccc(Cl)c2)[C@H](O)CNC(C)CCCC(C)C)cc(N2CCCCS2(=O)=O)c1` (stereo partly specified) it was 285 nM; in that of `Cc1ccc(F)c(CN2CCC(N3CC(c4ccccc4)(c4ccccc4)OC3=O)CC2)c1Cl`, 593 nM; in that of `Nc1nccc2ccc(-c3ccc(Oc4ccccc4)cc3)cc12`, 278 nM. As to `CC(C)(C)c1cc(CN2CCN(Cc3ccccc3)CC2)cc(C(C)(C)C)c1O`, the XC50 stood at 771 nM. Next, `O=C(Nc1cccc(-c2cccc(-c3nc4ccccc4[nH]3)c2)c1)Nc1ccc(Cl)c(Cl)c1`: 131 nM; `CC(C)(C)c1cc(C(=O)N2CCN(c3cnccn3)CC2)n(Cc2ccccc2)n1`: 1140 nM. Regarding `CN1C(=O)C(=O)N(CCCCCONC(=N)N)C1=S`, the XC50 is 197 nM. Compound `CCOC(=O)c1ccc(NC(=O)NC2CCN(CCCCCNC(=O)/C=C/c3ccc(Cl)c(Cl)c3)C2)cc1` (stereo unspecified) gave an XC50 of 487 nM. Next, `CC(C)c1ccc(NC(=O)c2cccc(CN3CCCN(Cc4cccc(C#N)c4)CC3)c2)cc1`: 948 nM. `COc1ccc(NC(=O)c2c(NC(=O)c3cccs3)sc3c2CCCC3)cc1`: the XC50 was 448 nM. For `COc1ccc2nccc([C@@H](O)CN3CCC(NCC(=O)Nc4cc(F)cc(F)c4)CC3)c2n1`, the XC50 is 912 nM. In the case of `Cc1nc2ccc(NC(=O)Nc3ccnc4ccc(C(F)(F)F)cc34)cc2o1` it was 912 nM.

The compound `COc1cc(NCCCCNc2ccc(Cl)c(Cl)c2)nc2ccccc12` returned an XC50 of 527 nM.

As for `O=C(/C=C/c1ccc(Cl)c(Cl)c1)NCCCCCN1CCC(CCNC(=O)C2(c3ccc(Cl)cc3)CC2)CC1`, the XC50 amounted to 925 nM. In the case of `Cn1cncc1C(=O)Nc1cccc(-c2ccc(-c3nc4cc(F)ccc4[nH]3)s2)c1` it was 872 nM; in that of `CCOc1ccc(-c2nonc2NC(=O)c2ccccc2Cl)cc1OCC`, 742 nM.
